Measured values from patent US11000627B2, “Treatment of implants with phosphonic acid compounds” (Nano Bridging Molecules SA, priority 2016, dated 2021).
Marks after values point to notes of the source that are not given here.

Tests used:
[1] = Thickness of phosphonic acid layer by depth profiling using XPS; assay type: physicochemical; settings: for Phosphorus/Metal: Metal = Zr3d + Y3d
Protocol: Two ceramic discs (yttria stabilized zirconia; length 5.0 mm, diameter 1.0 mm) were provided with a roughened surface, produced by sand blasting and acid etching according to industry standards. The discs were immersed in 80 ml of a 2% (v/v) aqueous solution of deconex 15 PF-x (which is a phosphate free, potassium hydroxide based standard cleaning agent). The solution was placed in an ultrasonic bath (output frequency 30 kHz) and sonicated at 70° C. for 15 min. This step was repeated a second time. The discs were removed from the cleaning agent solution and rinsed with water as follows: 2 times with 90 ml, swirling at room temperature; 3 times with 90 ml, sonicating for 2 min at 70° C. The discs were then placed into 2 glass bottles and immersed into 2.5 ml of a 0.7 mM aqueous solution of 1,1,3,3-propane tetraphosphonic acid. The solutions were placed in the ultrasonic bath and sonicated at 70° C. for 60 min. The discs were rinsed with water as follows: 1 time with 10 ml, swirling at room temperature; 1 time with 10 ml, sonicating for 2 min at 65° C.; 1 time with 10 ml, swirling at room temperature. The discs were dried in a desiccator over P2O5 and under vacuum (ca 20 mbar) for at least 3 hours.
Following the surface treatment, the thickness of the phosphonic acid layer was determined by depth profiling using XPS. Ion gun sputtering cycles were alternated with XPS measurements. An ion gun was used to etch the material for a defined period of time. Once turned off, XPS spectra were acquired. The depth profiles were performed using a Kratos AXIS Nova high resolution spectrometer. An Al-standard source was used for the measurement. Depth profile sputtering was performed by scanning a 3.8 keV Ar+ beam at 100 μA extractor current over an area of 4 mm×4 mm. The sputter rate of Ta2O5 standards measured under these conditions (6 nm/min) was used to convert sputter time in approximate sputter depth. Spectra were measured after the following sputtering times: 0, 5, 10, 15, 20, 30, 40, 60 sec. Spectra were peak fitted after background subtraction by assuming a Gaussian/Lorentzian (90-70/10-30) peak shape. All peaks between 0 eV to 1200 eV were inspected.
The phosphorus peak was measured at % atomic concentrations close to the detection limit (0.5%) after 10 seconds of sputtering.

[2] = XPS phosphorus over metal ratio (surface coverage) on Titanium grade 23 dental implants; assay type: physicochemical; settings: sonicated 65° C. 10 min, Metal = Ti2p + Al2s + V2p
Protocol: A Titanium grade 23 dental implant (bulk composition atomic concentration Titanium 90%, Aluminum 6%, Vanadium 4%; length 11.0 mm, diameter 3.75 mm) was provided with a roughened surface, produced by sand blasting and acid etching according to industry standards. The dental implant was immersed in 40 ml of a 2% (v/v) aqueous solution of deconex 15 PF-x (which is a phosphate free, potassium hydroxide based standard cleaning agent). The solution was placed in an ultrasonic bath (output frequency 30 kHz) and sonicated at 65° C. for 30 min. The implant was removed from the cleaning agent solution and rinsed with water as follows: 2 times with 40 ml, swirling at room temperature; 4 times with 40 ml, sonicating for 2 min at 65° C.; 1 time with 40 ml, swirling at room temperature. The implant was then placed into 5 ml of a 0.7 mM aqueous solution of 1,1,3,3-propane tetraphosphonic acid. The solution was placed in the ultrasonic bath and sonicated at 65° C. for 10 min. The implant was rinsed with water as follows: 2 times with 10 ml, swirling at room temperature; 1 time with 10 ml, sonicating for 2 min at 65° C.; 1 time with 10 ml, swirling at room temperature. The dental implant was dried in a desiccator over P2O5 and under vacuum (ca 20 mbar) for at least 3 hours.
Ten Titanium grade 23 dental implants (bulk composition atomic concentration Titanium 90%, Aluminum 6%, Vanadium 4%; length 11.0 mm, diameter 3.75 mm) were provided with a roughened surface, produced by sand blasting and acid etching according to industry standards. The dental implants were immersed in 400 ml of a 2% (v/v) aqueous solution of deconex 15 PF-x (which is a phosphate free, potassium hydroxide based standard cleaning agent). The solution was placed in an ultrasonic bath (output frequency 30 kHz) and sonicated at 65° C. for 30 min. The implants were removed from the cleaning agent solution and rinsed with water as follows: 2 times with 400 ml, swirling at room temperature; 4 times with 400 ml, sonicating for 2 min at 65° C.; 1 time with 400 ml, swirling at room temperature. The implants were then placed one after the other into 5 ml of a 0.7 mM aqueous solution of 1,1,3,3-propane tetraphosphonic acid. The solution was placed in the ultrasonic bath and sonicated at 65° C. for 10 min. After the treatment with the phosphonic acid, each implant was rinsed with water as follows: 1 time with 10 ml, swirling at room temperature; 1 time with 10 ml, sonicating for 2 min at 65° C.; 1 time with 10 ml, swirling at room temperature. The dental implants were dried in a desiccator over P2O5 and under vacuum (ca 30 mbar) for at least 3 hours.
A Titanium grade 23 dental implant (bulk composition atomic concentration Titanium 90%, Aluminum 6%, Vanadium 4%; length 13.0 mm, diameter 3.75 mm) was provided with a roughened surface, produced by sand blasting and acid etching according to industry standards. The implant was immersed in 13 ml of a 0.7 mM aqueous solution of 1,1,3,3-propane tetraphosphonic acid. The solution was placed in an ultrasonic bath and sonicated at room temperature for 10 min. The implant was rinsed with water as follows: 1 time with 10 ml, swirling at room temperature; 2 times with 10 ml, sonicating for 1 min at room temperature. The dental implant was dried in a heating oven (ca 70° C.) for at least 1 hour. […]
Following the surface treatment with one phosphonic acid compound as described in Examples 1 to 7 the samples were analyzed by X-ray photoelectron spectroscopy (XPS). […]

SMILES: O=P(O)(O)C(CC(P(=O)(O)O)P(=O)(O)O)P(=O)(O)O [1,1,3,3-propane tetraphosphonic acid]
- thickness of monolayer ([1]; 0.7 mM, sonicated 70° C. 60 min, sputter depth from Ta2O5 standard rate): about 1 nm
- Phosphorus/Metal ([1]; sputtering 0 sec, depth 0 nm): 0.18^b
- Phosphorus/Metal ([1]; sputtering 5 sec, depth 0.5 nm): 0.03^b
- Phosphorus/Metal ([1]; sputtering 10 sec, depth 1 nm): 0.02^b
- Phosphorus/Metal ([1]; sputtering 15 sec, depth 1.5 nm): 0.02^b
- Phosphorus/Metal ([1]; sputtering 20 sec, depth 2 nm): 0.01^b
- Phosphorus/Metal ([1]; sputtering 30 sec, depth 3 nm): 0.02^b
- Phosphorus/Metal ([1]; sputtering 40 sec, depth 4 nm): 0.01^b
- Phosphorus/Metal ([1]; sputtering 60 sec, depth 6 nm): 0.00^b
- Phosphorus/Metal ([2]; 0.7 mM): 0.19
- Phosphorus/Metal ([2]; 2 mM): 0.18
- Phosphorus/Metal ([2]; 3.5 mM): 0.17
- Phosphorus/Metal ([2]; 5 mM): 0.18
- Phosphorus/Metal ([2]; 7 mM): 0.18
